In patent publication EP4692088A1, “COMPOUND ACTING AS WRN HELICASE INHIBITOR” (SHANGHAI JEYOU PHARMACEUTICAL CO., LTD., priority 2023, dated 2024) one finds IC50 and EC50 data, which are given here for 3 compounds.

One assay deals with SW48 cells. Put plainly: Cell proliferation assay (CellTiter-Glo), SW48. The note with it: Homo sapiens, SW48, 120 h, SW-48, 5 days incubation. The format is cell-based. Here is the method:
(§1) SW48 cells were plated at a density of 1,500 cells/well, and LoVo, HCT116, and SW620 cells were plated at a density of 800 cells/well in a 96-well cell culture plate, and cultured in a 37°C incubator overnight. The test compounds, which were gradient-diluted with DMSO, were added, and after incubation for 5 days, cell viability was detected using a CellTiter-Glo kit. The CellTiter-Glo reagent was equilibrated to room temperature, and an appropriate amount was added to the cell plate, followed by shaking at room temperature for 12 min. The luminescence signal was detected using a microplate reader.
(§2) The luminescence signal values of the DMSO-treated wells and cell-free wells were used as negative and positive controls, respectively, to calculate the inhibition rate of compound on cell proliferation. The concentration-inhibition curve was fitted using the "log(inhibitor) vs. normalized response -- Variable slope" equation in GraphPad Prism 8 software to obtain the IC50. [formula]
On the technique in general: Cellular ATP, detected with luciferase, serves as a proxy for viable cell number.

The test system of the next assay is HCT116. Put plainly: γH2AX induction assay (HTRF Phospho-H2AX), HCT116. In kind it is cell-based. Particulars: Homo sapiens, HCT-116, incubated for 2-3 days, read-out: γ-H2AX induction HCT-116 (EC50 nM). Here is the method:
(§3) SW48, HCT116, and SW620 cells were plated into 96-well cell culture plates at a density of 15,000-25,000 cells/well and cultured overnight in a 37°C incubator. The test compounds, which were gradient-diluted with DMSO, were added and incubated for 2-3 days. The γ-H2AX level was detected using HTRF Phospho-H2AX (SER139) Detection Kits. The 4× Lysis buffer and Detection buffer were equilibrated to room temperature for later use. The 4× Lysis buffer was diluted to 1× Lysis buffer using ddH2O. After the medium was aspirated, 50 µL of 1× Lysis buffer was added to each well and shaken at room temperature for 30 minutes for lysis. 16 µL of lysate was transferred to a 384-well plate, followed by the addition of 4 µL of diluted antibody mixture (Phospho-H2AX d2 antibody and Phospho-H2AX Eu Cryptate antibody were each diluted 20-fold using Detection buffer, and the two antibodies were then mixed uniformly at a 1:1 volume ratio). The mixture was incubated at room temperature for 2-24 h, and fluorescence signals at […] and 615 nm were detected using a microplate reader. Parallel treatment plates were simultaneously set up in the experiment, and cell viability was detected using the CellTiter-Glo kit. The CellTiter-Glo reagent was equilibrated to room temperature, and an appropriate amount was added to the cell plate, followed by shaking at room temperature for 12 min. The luminescence signal was detected using a microplate reader.
(§4) The fluorescence signal values of DMSO-treated wells and positive drug-treated wells were used as negative and positive controls, respectively, to calculate the level of γ-H2AX induced by the compounds. The concentration-induction rate curve was fitted using the "log(agonist) vs. response -- Variable slope (four parameters)" equation in GraphPad Prism 8 software to obtain the EC50. [formula] [formula]
(In TR-FRET formats the signal depends on donor and acceptor labels being close together.)

The next assay concerns SW48. As to the kind of experiment: γH2AX induction assay (HTRF Phospho-H2AX), SW48. The format is cell-based. The note with it: Homo sapiens, SW-48, incubated for 2-3 days, read-out: γ-H2AX induction SW-48 (EC50 nM). On the procedure:
as §3, §4

For a further assay, the target named is T1, WRN enzyme (Homo sapiens, UniProt Q14191).
T1 construct: host or cells: eukaryotic cells (not further specified)
Put plainly: WRN helicase activity assay (unwinding of BHQ2/Cy5-labelled double-stranded DNA, fluorescence). The format is biochemical. Particulars: Table 3, 30 min pre-incubation, 30 min reaction. From the text: The WRN enzyme used in the experiment has a His-TEV tag at the N-terminus and is expressed in eukaryotic cells with a purity of 90%. The two single-stranded DNAs used for assay are labeled with BHQ2 and Cy5, respectively. When two fluorophores are in close proximity (when the DNA is in a double-stranded state), no fluorescence signal is detected due to the quenching effect. WRN has helicase activity, which enables the unwinding of double-stranded DNA to form single strands, thereby generating a fluorescence signal.
Two labeled single-stranded DNA strands were annealed to form double-stranded DNA. Annealing buffer: 12 mM Tris (pH 8.0), 300 mM NaCl, 12 mM MgCl2, 2 mM DTT. Annealing program: 95°C, 5 min.
2× WRN enzyme (2 nM) and 2× substrate (100 nM double-stranded DNA, 1000 nM capture DNA, 100 µM ATP) were prepared using buffer (20 mM Bicine, 10 mM KCl, 1 mM MgCl2, 0.005% BSG, 1 mM TCEP, 0.1% F-127, pH 7.5). The test compound was dissolved in DMSO to 10 mM and was gradient-diluted using a 96-well V-bottom plate. 0.5 µL of compound was added to 25 µL of 2× WRN enzyme and incubated at room temperature for 30 min. 25 µL of 2× substrate was added, and the reaction was carried out at room temperature for 30 min. Detection was performed using a microplate reader with an excitation wavelength of 620 nm and an emission wavelength of 685 nm.
The concentration-effect curve was fitted using GraphPad Prism 8 software, and the compound concentration for 50% inhibition (IC50) was calculated. The percentage inhibition for each compound concentration was first calculated, and then the concentration-effect curve was fitted using the "log(inhibitor) vs. normalized response -- Variable slope" equation in GraphPad Prism 8 software to obtain the IC50. [formula] • Positive control: 25 µL 2× WRN enzyme + 0.5 µL DMSO + 25 µL 2× substrate • Negative control: 25 µL 2× buffer + 0.5 µL DMSO + 25 µL 2× substrate

Another assay deals with SW620 cells. As to the kind of experiment: Cell proliferation assay (CellTiter-Glo), SW620. In kind it is cell-based. Particulars: Homo sapiens, 120 h, SW-620 (MSS), 5 days incubation. On the procedure: as §1, §2

Molecules are shown by their SMILES.

T1 sequence (Q14191 whole entry): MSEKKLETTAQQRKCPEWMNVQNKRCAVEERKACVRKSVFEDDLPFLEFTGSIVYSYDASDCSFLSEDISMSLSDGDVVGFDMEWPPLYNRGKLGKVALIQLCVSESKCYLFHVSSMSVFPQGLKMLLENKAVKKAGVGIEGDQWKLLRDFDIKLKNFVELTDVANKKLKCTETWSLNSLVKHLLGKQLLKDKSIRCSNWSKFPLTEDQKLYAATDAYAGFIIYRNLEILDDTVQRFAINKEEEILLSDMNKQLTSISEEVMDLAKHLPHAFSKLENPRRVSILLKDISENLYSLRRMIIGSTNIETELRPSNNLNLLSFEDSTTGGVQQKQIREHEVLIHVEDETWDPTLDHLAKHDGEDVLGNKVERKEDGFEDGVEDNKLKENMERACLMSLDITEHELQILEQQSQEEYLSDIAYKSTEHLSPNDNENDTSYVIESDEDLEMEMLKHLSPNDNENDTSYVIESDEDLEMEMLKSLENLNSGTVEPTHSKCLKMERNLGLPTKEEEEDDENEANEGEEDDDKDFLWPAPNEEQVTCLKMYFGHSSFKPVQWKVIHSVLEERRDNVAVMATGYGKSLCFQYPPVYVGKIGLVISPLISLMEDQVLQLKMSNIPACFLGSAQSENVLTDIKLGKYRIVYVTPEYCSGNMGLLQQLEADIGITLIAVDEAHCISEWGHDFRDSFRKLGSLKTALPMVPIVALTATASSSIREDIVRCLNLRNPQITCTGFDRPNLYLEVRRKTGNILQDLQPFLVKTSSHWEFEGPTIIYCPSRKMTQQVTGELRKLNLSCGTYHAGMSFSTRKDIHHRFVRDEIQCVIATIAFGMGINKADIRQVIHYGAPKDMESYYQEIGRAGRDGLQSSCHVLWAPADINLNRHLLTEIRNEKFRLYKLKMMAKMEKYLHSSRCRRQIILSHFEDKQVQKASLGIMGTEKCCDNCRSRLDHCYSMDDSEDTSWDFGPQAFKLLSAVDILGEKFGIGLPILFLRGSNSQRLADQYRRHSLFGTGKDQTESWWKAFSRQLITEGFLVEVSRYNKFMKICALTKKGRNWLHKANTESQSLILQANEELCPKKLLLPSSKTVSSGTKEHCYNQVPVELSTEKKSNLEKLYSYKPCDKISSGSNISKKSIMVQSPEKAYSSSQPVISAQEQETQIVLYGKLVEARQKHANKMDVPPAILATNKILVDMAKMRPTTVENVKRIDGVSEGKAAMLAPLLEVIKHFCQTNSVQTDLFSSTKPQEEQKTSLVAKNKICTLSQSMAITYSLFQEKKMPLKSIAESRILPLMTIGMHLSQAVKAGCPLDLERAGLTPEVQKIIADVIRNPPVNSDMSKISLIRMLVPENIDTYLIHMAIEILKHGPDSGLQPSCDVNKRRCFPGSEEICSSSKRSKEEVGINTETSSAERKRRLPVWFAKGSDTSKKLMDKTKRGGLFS

What is called IC50 is the point on the concentration scale where inhibition reaches its midpoint. A high value points to weaker potency. A word on the EC50: it is the concentration giving half of the maximal effect. Consider `CCc1c(N2CCN(C(=O)c3ncnc(C)c3O)CC2)c(=O)c2nn(C3=CCOCC3)nc2n1CC(=O)Nc1ccc(C(F)(F)F)cc1Cl` [Example 4], for which the IC50 in the assay on SW48 cells is 37.2 nM; at WRN enzyme, 60.9 nM; in the assay on SW620 cells it was above 25000 nM. For the same compound, the EC50 in the assay on HCT116 came to 128 nM; with SW48, 53.8 nM.
As for `CCc1c(N2CCN(C(=O)c3ncnc(C)c3O)CC2)c(=O)c2nn(C3=CCOCC3)nc2n1CC(=O)Nc1cc(F)c(Cl)cc1Cl` [Example 22], the results for the half-inhibitory concentration (IC50) with SW48 cells, against WRN enzyme and in the assay with SW620 cells were 70.7 nM, 72.1 nM and above 25000 nM, respectively. The half-maximal effective concentration (EC50) was 168 nM in the assay with HCT116 and 128 nM in the assay with SW48.
As to `CCc1c(N2CCN(C(=O)c3ncnc(C)c3O)CC2)c(=O)c2nn(C3=CCOCC3)nc2n1CC(=O)Nc1cc(F)c(C(F)(F)F)cc1Cl` [Example 15], the IC50 was 35.4 nM with SW48 cells, 70.2 nM on WRN enzyme and above 25000 nM in the assay with SW620 cells. For the same compound, the values for the EC50 in the assay on HCT116 and with SW48 were 97.1 nM and 62.9 nM, respectively.
